molecular target: Mitogen-activated protein kinase kinase kinase kinase 1 (Homo sapiens, UniProt Q92918); assay: HPK-1 biochemical enzyme assay
Description: Compound inhibitory potency was measured in an HPK-1 kinase inhibition assay. Briefly, recombinant full length HPK-1 enzyme (6.8 nM) was incubated with 10 μM ATP and 12.5 μM swine myelin basic protein (MBP) for 30 mins. at 25° C. in the presence of various concentrations of test compound or vehicle in 40 mM Tris.Cl pH7.4 buffer containing 20 mM MgCl2, 50 μM DTT and 0.1 mg/mL BSA. Reactions were quenched and reaction mixtures were then analyzed by an ADP-Glo kit which measures the formed ADP. The percent inhibition was calculated from the substrate conversion considering no enzyme control reactions for 100% inhibition and vehicle only reactions for 0% inhibition. The compounds were dissolved in DMSO and evaluated at 10 concentrations to determine an IC50 value.

Mitogen-activated protein kinase kinase kinase kinase 1, sequence (Q92918 whole entry): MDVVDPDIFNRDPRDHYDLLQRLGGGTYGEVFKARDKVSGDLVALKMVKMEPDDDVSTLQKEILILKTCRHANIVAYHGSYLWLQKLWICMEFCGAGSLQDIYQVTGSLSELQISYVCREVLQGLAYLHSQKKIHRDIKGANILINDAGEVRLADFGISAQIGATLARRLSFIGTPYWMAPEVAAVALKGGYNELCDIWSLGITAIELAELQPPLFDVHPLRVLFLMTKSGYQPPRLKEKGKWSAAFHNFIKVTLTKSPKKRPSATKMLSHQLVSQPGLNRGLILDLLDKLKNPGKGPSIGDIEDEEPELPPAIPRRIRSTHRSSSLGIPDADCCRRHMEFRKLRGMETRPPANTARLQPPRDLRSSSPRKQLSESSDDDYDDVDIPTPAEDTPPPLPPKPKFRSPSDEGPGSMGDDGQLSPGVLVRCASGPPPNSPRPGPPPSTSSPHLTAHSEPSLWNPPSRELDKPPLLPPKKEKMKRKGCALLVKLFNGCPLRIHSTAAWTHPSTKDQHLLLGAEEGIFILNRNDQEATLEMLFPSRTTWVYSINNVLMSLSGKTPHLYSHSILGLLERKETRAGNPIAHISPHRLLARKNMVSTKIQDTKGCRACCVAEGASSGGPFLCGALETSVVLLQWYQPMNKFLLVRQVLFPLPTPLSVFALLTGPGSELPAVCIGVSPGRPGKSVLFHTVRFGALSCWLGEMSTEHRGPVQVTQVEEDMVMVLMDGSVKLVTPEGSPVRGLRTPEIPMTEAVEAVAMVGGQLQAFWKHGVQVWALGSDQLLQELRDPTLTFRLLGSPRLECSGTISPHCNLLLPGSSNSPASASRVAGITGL

Row | SMILES | IC50
1 | COCCCN1CCN(c2ccc(NC(=O)c3c(Nc4cnc5c(c4C)NCCO5)cc[nH]c3=O)cc2)CC1 [US20250282794, Example 277] | < 0.01 µM
2 | Cc1c(Nc2cc[nH]c(=O)c2C(=O)Nc2ccc(N3CCC(O)CC3)cc2)cnc2c1NCCO2 [US20250282794, Example 278] | < 0.01 µM
3 | Cc1c(Nc2cc[nH]c(=O)c2C(=O)Nc2ccc(C3CCN(C(C)C)CC3)cc2)cnc2c1NCCO2 [US20250282794, Example 279] | < 0.01 µM
4 | Cc1c(Nc2cc[nH]c(=O)c2C(=O)Nc2ccc(N3CCN(c4ccccn4)CC3)cc2)cnc2c1NCCO2 [US20250282794, Example 289] | < 0.01 µM
5 | Cc1c(Nc2cc[nH]c(=O)c2C(=O)Nc2ccc(-c3ccccc3)cc2)cnc2c1NCCO2 [US20250282794, Example 331] | 0.01 to 0.1 µM
6 | Cc1c(Nc2cc[nH]c(=O)c2C(=O)Nc2ccc(N3CCC(O)(CN(C)C)CC3)c(F)c2)cnc2c1NCC(C)O2 (stereo unspecified) [US20250282794, Example 388] | < 0.01 µM

Further lines, results first:

Row | IC50 | SMILES
7 | < 0.01 µM | COCCN1CCN(c2ccc(NC(=O)c3c(Nc4cnc5c(c4C)NCCO5)cc[nH]c3=O)cc2F)CC1 [US20250282794, Example 194]
8 | < 0.01 µM | COCCN1CCN(c2ccc(NC(=O)c3c(Nc4cnc5c(c4C)NCCO5)cc[nH]c3=O)cc2C)CC1 [US20250282794, Example 275]
9 | < 0.01 µM | Cc1c(Nc2cc[nH]c(=O)c2C(=O)Nc2ccc(N3CCN(C4CCCC4)CC3)c(N)c2)cnc2c1NCCO2 [US20250282794, Example 311]
10 | < 0.01 µM | Cc1c(Nc2cc[nH]c(=O)c2C(=O)Nc2ccc(N3CCN(C(=O)C4CCC4)CC3)cc2)cnc2c1NCCO2 [US20250282794, Example 314]
11 | < 0.01 µM | Cc1c(Nc2cc[nH]c(=O)c2C(=O)Nc2ccc(N3CCN(C)CC3)c(CN)c2)cnc2c1NCCO2 [US20250282794, Example 393]

From BindingDB's records for patent US20250282794 (Curadev Pharma, 2025)
